The results in this text go back to patent publication US8912120B2, “Herbicidal compositions comprising 4-amino-3-chloro-5-fluoro-6-(4-chloro-2-fluoro-3-methoxyphenyl) pyridine-2-carboxylic acid or a derivative thereof and synthetic auxin herbicides” (Dow AgroSciences, LLC., priority 2012, dated 2014).

In one experiment the test system is STEME. Briefly: Example IV: postemergence foliar-applied herbicidal mixtures, cereal crops, STEME. The format is in vivo, Stellaria media (common chickweed). Conditions: alone, 8.75 gai/ha, 20-22 days. How it is done: Seeds of the desired test plant species were planted in Sun Gro MetroMix 306 planting mixture, which typically has a pH of 6.0 to 6.8 and an organic matter content of about 30 percent, in plastic pots with a surface area of 103.2 square centimeters (cm^2). […] The plants were grown for 7-36 days in a greenhouse with an approximate 14 hour photoperiod which was maintained at about 18° C. during the day and 17° C. during the night.
Spray solutions of the second cereal herbicide and experimental compound mixtures were prepared by adding the stock solutions to the appropriate amount of dilution solution to form 12 mL spray solution with active ingredients in two- and three-way combinations.

The test system of the next experiment is SINAR. Put plainly: Example V: postemergence herbicidal activity of mixtures in forage crops, SINAR. It is filed as in vivo, Sinapis arvensis (wild mustard). Conditions: alone, foliar, approximately 21 days. The method, boiled down: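 Plants grown from seed or root cuttings in MetroMix 306 (pH 6.0–6.8) for 14–60 days in greenhouse, ~14 h photoperiod, ~28/24 °C day/night. Foliar spray of two-way mixtures of the second herbicide or experimental compounds applied postemergence.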

The next experiment deals with SOOSS. Briefly: Example V: postemergence herbicidal activity of mixtures in forage crops, SOOSS. The format is in vivo, Solidago L. spec. (goldenrod). To be noted: alone, foliar, approximately 21 days. How it is done: Seeds or root cuttings of the desired test plant species were planted in Sun Gro MetroMix® 306 planting mixture, which typically has a pH of 6.0 to 6.8 and an organic matter content of about 30 percent, in plastic pots with a surface area of 126.6 square centimeters (cm^2). […] The plants were grown for 14-60 days in a greenhouse with an approximate 14 hour photoperiod which was maintained at approximately 28° C. during the day and 24° C. during the night.
Spray solutions of the second herbicide or experimental compound mixtures were prepared by adding the stock solutions to the appropriate amount of dilution solution to form 12 mL spray solution with active ingredients in two-way combinations.

Values joined by “and” are separate entries in the source; they are usually repeats but may differ in a detail not shown here. Equal values may be shown once.

For `COc1c(Cl)ccc(-c2nc(C(=O)OCc3ccccc3)c(Cl)c(N)c2F)c1F` [Compound A Benzyl Ester, benzyl ester of 4-amino-3-chloro-5-fluoro-6-(4-chloro-2-fluoro-3-methoxy-phenyl)pyridine-2-carboxylic acid], the “STEME Ob (observed value)” value in the experiment on STEME came out at 70%. In addition, the “SINAR Obs (observed value)” value in the experiment with SINAR (1.1 gae/ha) was 72%; with SINAR (2.2 gae/ha) it was 98%; in the experiment with SINAR (4.4 gae/ha) it was 80% and 100%; with SINAR (8.8 gae/ha), 100%; in the experiment on SINAR (17.5 gae/ha), 100%. The “SOOSS Obs (observed value)” value was determined as 15% in the experiment with SOOSS (2.2 gae/ha) and 100% in the experiment with SOOSS (17.5 gae/ha).
